Reference: patent US7504420B2, “Compounds which inhibit beta-secretase activity and methods of use” (CoMentis, Inc., priority 2005, dated 2009)
pIC50, pKi: −log10 of the molar value. Where two headings read alike, the source gives them in different places.

How the values were obtained:
[1] = tested on: Aβ production in Chinese hamster ovary cells that over-express human APP695 with the London and Swedish mutations; test: Cellular Aβ IC50 determination (Aβ40 sandwich ELISA); details: Cricetulus griseus, CHO, 24 h
Method: The potency of compounds against memapsin 2 catalytic activity was determined in a cellular assay of Aβ production. […] Compounds are dissolved in DMSO to concentrations near 1 mM, and diluted into culture media to a final concentration near 4 μM (final 0.4% DMSO). Compounds were diluted serially and applied to cells in multi-well plates 48 h after seeding. Incubation was continued in 5% CO2 at 37 degrees C. for 24 h. Aliquots were removed and assayed for Aβ40 content using a sandwich ELISA (BioSource International). Amount of Aβ40 over the range of concentration of compounds, relative to control incubations, were fit to a 4-parameter IC50 model.

[2] = target: memapsin 2 (Homo sapiens, UniProt P56817); test: Inhibition of memapsin 2 catalytic activity (Ki); type: biochemical; details: memapsin 2, pH 4, 37° C.; read-out: M2K
memapsin 2, sequence (P56817 46-501): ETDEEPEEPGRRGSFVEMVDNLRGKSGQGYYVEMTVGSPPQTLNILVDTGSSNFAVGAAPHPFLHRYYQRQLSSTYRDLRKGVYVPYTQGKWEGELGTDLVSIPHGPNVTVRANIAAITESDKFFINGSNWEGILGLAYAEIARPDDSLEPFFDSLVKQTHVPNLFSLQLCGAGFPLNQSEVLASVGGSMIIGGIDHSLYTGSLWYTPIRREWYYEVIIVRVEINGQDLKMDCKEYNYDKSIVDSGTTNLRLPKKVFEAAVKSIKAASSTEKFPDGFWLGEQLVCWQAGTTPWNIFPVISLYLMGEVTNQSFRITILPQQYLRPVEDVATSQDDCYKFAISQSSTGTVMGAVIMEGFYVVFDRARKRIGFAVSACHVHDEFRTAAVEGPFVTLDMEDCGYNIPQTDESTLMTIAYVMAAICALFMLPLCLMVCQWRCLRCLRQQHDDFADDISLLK
Method: Potency of compounds were determined by measurement of their inhibition of memapsin 2 catalytic activity toward a fluorescent substrate. […] Briefly, assays were performed at pH 4, 37° C., by pre-incubation of memapsin 2 enzyme with compound for 20 minutes. Activity measure was initiated by addition of a fluorogenic substrate FS-2 (Bachem Americas, Torrance, Calif.). Fluorescent signal increase over time was measured as a rate of hydrolysis of the peptide substrate. […]

[3] = read-out: Cell, Aβ40, CHO cells over-expressing human APP695 (London and Swedish mutations), 24 h

Compound	pIC50 [1, 3]	pKi [2]	pIC50 ([1]; read-out: Cell)
CC(NC(=O)c1cc(C(=O)NC(Cc2ccccc2)C(O)CNCc2nccn2COCC[Si](C)(C)C)cc(N(C)S(C)(=O)=O)c1)c1ccccc1 (stereo not drawn) [N1-(3-hydroxy-1-phenyl-4-((1-((2-(trimethylsilyl)ethoxy)methyl)-1H-imidazol-2-yl)methylamino)butan-2-yl)-5-(N-methylmethylsulfonamido)-N3-(1-phenylethyl)isophthalamide]	–	6.30 to 6.52	< 5.30
CC(NC(=O)c1cc(C(=O)NC(Cc2ccccc2)C(O)CNCc2cccn2COCC[Si](C)(C)C)cc(N(C)S(C)(=O)=O)c1)c1ccccc1 (stereo not drawn) [N1-(3-hydroxy-1-phenyl-4-((1-((2-(trimethylsilyl)ethoxy)methyl)-1H-pyrrol-2-yl)methylamino)butan-2-yl)-5-(N-methylmethylsulfonamido)-N3-(1-phenylethyl)isophthalamide]	–	6.30 to 6.52	> 6.00
COc1ccccc1CNCC(O)C(Cc1ccccc1)NC(=O)c1cccc(C(=O)N(C)Cc2nc(C)cs2)c1 (stereo not drawn) [N1-(3-hydroxy-4-(2-methoxybenzylamino)-1-phenylbutan-2-yl)-N3-methyl-N3-((4-methylthiazol-2-yl)methyl)isophthalamide]	5.30 to 6.00	< 6.30	–
COc1ccccc1CCNCC(O)C(Cc1ccccc1)NC(=O)c1cccc(C(=O)N(C)Cc2nc(C)cs2)c1 (stereo not drawn) [N1-(3-hydroxy-4-(2-methoxyphenethylamino)-1-phenylbutan-2-yl)-N3-methyl-N3-((4-methylthiazol-2-yl)methyl)isophthalamide]	5.30 to 6.00	< 6.30	–
COc1cc(CCCNCC(O)C(Cc2ccccc2)NC(=O)c2cc(C(=O)NC(C)c3ccccc3)cc(N(C)S(C)(=O)=O)c2)ccc1C (stereo not drawn) [N1-(3-hydroxy-4-(3-(3-methoxy-4-methylphenyl)propylamino)-1-phenylbutan-2-yl)-5-(N-methylmethylsulfonamido)-N3-(1-phenylethyl)isophthalamide]	5.30 to 6.00	> 6.52	–
COc1ccc(CCNCC(O)C(Cc2ccccc2)NC(=O)c2cc(C(=O)NC(C)c3ccccc3)cc(N(C)S(C)(=O)=O)c2)cc1O (stereo not drawn) [N1-(3-hydroxy-4-(3-hydroxy-4-methoxyphenethylamino)-1-phenylbutan-2-yl)-5-(N-methylmethylsulfonamido)-N3-(1-phenylethyl)isophthalamide]	5.30 to 6.00	> 6.52	–
COc1cccc(CNCC(O)C(Cc2ccccc2OC)NC(=O)c2cc(C(=O)NC(C)c3ccccc3)cc(N(C)S(C)(=O)=O)c2)c1 (stereo not drawn) [N1-(3-hydroxy-4-(3-methoxybenzylamino)-1-(2-methoxyphenyl)butan-2-yl)-5-(N-methylmethylsulfonamido)-N3-(1-phenylethyl)isophthalamide]	< 5.30	6.30 to 6.52	–
COc1cccc(CNCC(O)C(Cc2ccccc2)NC(=O)c2cc(C(=O)NCc3nc(CO)co3)cc(N(C)S(C)(=O)=O)c2)c1 (stereo not drawn) [N1-(3-hydroxy-4-(3-methoxybenzylamino)-1-phenylbutan-2-yl)-N3-((4-(hydroxymethyl)oxazol-2-yl)methyl)-5-(N-methylmethylsulfonamido)isophthalamide]	< 5.30	6.30 to 6.52	–
COc1cccc(CNCC(O)C(Cc2ccccc2)NC(=O)c2cccc(C(=O)N(Cc3nc(C)cs3)C(C)C)c2)c1 (stereo not drawn) [N1-(3-hydroxy-4-(3-methoxybenzylamino)-1-phenylbutan-2-yl)-N3-isopropyl-N3-((4-methylthiazol-2-yl)methyl)isophthalamide]	> 6.00	> 6.52	–
COc1cccc(CN(CC(O)C(Cc2ccccc2)NC(=O)c2cc(C(=O)NC(C)c3ccccc3)cc(N(C)S(C)(=O)=O)c2)C(=O)CCCC(=O)NCCN2CCOCC2)c1 (stereo not drawn) [N1-(3-hydroxy-4-(N-(3-methoxybenzyl)-5-(2-morpholinoethylamino)-5-oxopentanamido)-1-phenylbutan-2-yl)-5-(N-methylmethylsulfonamido)-N3-(1-phenylethyl)isophthalamide]	< 5.30	–	–
COc1cccc(CN(CC(O)C(Cc2ccccc2)NC(=O)c2cc(C(=O)NC(C)c3ccccc3)cc(N(C)S(C)(=O)=O)c2)C(=O)CCCC(=O)NN2CCN(C)CC2)c1 (stereo not drawn) [N1-(3-hydroxy-4-(N-(3-methoxybenzyl)-5-(4-methylpiperazin-1-ylamino)-5-oxopentanamido)-1-phenylbutan-2-yl)-5-(N-methylmethylsulfonamido)-N3-(1-phenylethyl)isophthalamide]	< 5.30	–	–
COc1cccc(CN(CC(O)C(Cc2ccccc2)NC(=O)c2cc(C(=O)NC(C)c3ccccc3)cc(N(C)S(C)(=O)=O)c2)C(=O)CCCC(=O)NCc2cccnc2)c1 (stereo not drawn) [N1-(3-hydroxy-4-(N-(3-methoxybenzyl)-5-oxo-5-(pyridin-3-ylmethylamino)pentanamido)-1-phenylbutan-2-yl)-5-(N-methylmethylsulfonamido)-N3-(1-phenylethyl)isophthalamide]	< 5.30	–	–
COc1cccc(CN(CC(O)C(Cc2ccccc2)NC(=O)c2cc(C(=O)NC(C)c3ccccc3)cc(N(C)S(C)(=O)=O)c2)C(=O)CN(C)C)c1 (stereo not drawn) [N1-(4-(2-(dimethylamino)-N-(3-methoxybenzyl)acetamido)-3-hydroxy-1-phenylbutan-2-yl)-5-(N-methylmethylsulfonamido)-N3-(1-phenylethyl)isophthalamide]	5.30 to 6.00	–	–
COC(=O)CCCC(=O)N(Cc1cccc(OC)c1)CC(O)C(Cc1ccccc1)NC(=O)c1cc(C(=O)NC(C)c2ccccc2)cc(N(C)S(C)(=O)=O)c1 (stereo not drawn) [methyl 5-((2-hydroxy-3-(3-(N-methylmethylsulfonamido)-5-(1-phenylethylcarbamoyl)benzamido)-4-phenylbutyl)(3-methoxybenzyl)amino)-5-oxopentanoate]	> 6.00	–	–

More lines, main results first:

pIC50 [1, 3]	pKi [2]	Compound	pIC50 ([1]; read-out: Cell)
> 6.00	> 6.52	COc1cccc(CNCC(O)C(Cc2cc(F)cc(F)c2)NC(=O)c2cccc(C(=O)N(C)Cc3nc(C)cs3)c2)c1 (stereo not drawn) [N1-(1-(3,5-difluorophenyl)-3-hydroxy-4-(3-methoxybenzylamino)butan-2-yl)-N3-methyl-N3-((4-methylthiazol-2-yl)methyl)isophthalamide]	–
> 6.00	> 6.52	CC(NC(=O)c1cc(C(=O)NC(Cc2ccccc2)C(O)CNCc2cccc(OC(F)(F)F)c2)cc(N(C)S(C)(=O)=O)c1)c1ccccc1 (stereo not drawn) [N1-(3-hydroxy-1-phenyl-4-(3-(trifluoromethoxy)benzylamino)butan-2-yl)-5-(N-methylmethylsulfonamido)-N3-(1-phenylethyl)isophthalamide]	–
> 6.00	> 6.52	Cc1csc(CN(C)C(=O)c2cccc(C(=O)NC(Cc3ccccc3)C(O)CNCc3cccc(OC(F)(F)F)c3)c2)n1 (stereo not drawn) [N1-(3-hydroxy-1-phenyl-4-(3-(trifluoromethoxy)benzylamino)butan-2-yl)-N3-methyl-N3-((4-methylthiazol-2-yl)methyl)isophthalamide]	–
> 6.00	> 6.52	Cc1cc(C(C)NCC(O)C(Cc2ccccc2)NC(=O)c2cc(C(=O)NC(C)c3ccccc3)cc(N(C)S(C)(=O)=O)c2)on1 (stereo not drawn) [N1-(3-hydroxy-4-(1-(3-methylisoxazol-5-yl)ethylamino)-1-phenylbutan-2-yl)-5-(N-methylmethylsulfonamido)-N3-(1-phenylethyl)isophthalamide]	–
> 6.00	> 6.52	Cc1csc(C(C)NCC(O)C(Cc2ccccc2)NC(=O)c2cc(C(=O)NC(C)c3ccccc3)cc(N(C)S(C)(=O)=O)c2)n1 (stereo not drawn) [N1-(3-hydroxy-4-(1-(4-methylthiazol-2-yl)ethylamino)-1-phenylbutan-2-yl)-5-(N-methylmethylsulfonamido)-N3-(1-phenylethyl)isophthalamide]	–
> 6.00	> 6.52	CC(NC(=O)c1cc(C(=O)NC(Cc2ccccc2)C(O)CNC(CO)c2ccccc2)cc(N(C)S(C)(=O)=O)c1)c1ccccc1 (stereo not drawn) [N1-(3-hydroxy-4-(2-hydroxy-1-phenylethylamino)-1-phenylbutan-2-yl)-5-(N-methylmethylsulfonamido)-N3-(1-phenylethyl)isophthalamide]	–
> 6.00	> 6.52	Cc1csc(CN(C)C(=O)c2cccc(C(=O)NC(Cc3ccccc3)C(O)CNCc3cccc(CC(C)C)c3)c2)n1 (stereo not drawn) [N1-(3-hydroxy-4-(3-isobutylbenzylamino)-1-phenylbutan-2-yl)-N3-methyl-N3-((4-methylthiazol-2-yl)methyl)isophthalamide]	–
> 6.00	> 6.52	COc1cccc(CNCC(O)C(Cc2cscn2)NC(=O)c2cc(C(=O)NC(C)c3ccccc3)cc(N(C)S(C)(=O)=O)c2)c1 (stereo not drawn) [N1-(3-hydroxy-4-(3-methoxybenzylamino)-1-(thiazol-4-yl)butan-2-yl)-5-(N-methylmethylsulfonamido)-N3-(1-phenylethyl)isophthalamide]	–
> 6.00	> 6.52	COc1cccc(CNCC(O)C(Cc2ccccc2)NC(=O)c2cc(C(=O)NC(C)c3nc(C)co3)cc(N(C)S(C)(=O)=O)c2)c1 (stereo not drawn) [N1-(3-hydroxy-4-(3-methoxybenzylamino)-1-phenylbutan-2-yl)-5-(N-methylmethylsulfonamido)-N3-(1-(4-methyloxazol-2-yl)ethyl)isophthalamide]	–
> 6.00	> 6.52	COc1cccc(CNCC(O)C(Cc2ccccc2)NC(=O)c2cc(C(=O)NC(C)c3nccs3)cc(N(C)S(C)(=O)=O)c2)c1 (stereo not drawn) [N1-(3-hydroxy-4-(3-methoxybenzylamino)-1-phenylbutan-2-yl)-5-(N-methylmethylsulfonamido)-N3-(1-(thiazol-2-yl)ethyl)isophthalamide]	–
> 6.00	> 6.52	COc1cccc(CNCC(O)C(Cc2ccccc2)NC(=O)c2cc(CS(C)(=O)=O)cc(C(=O)NC(C)c3ccccc3)c2)c1 (stereo not drawn) [N1-(3-hydroxy-4-(3-methoxybenzylamino)-1-phenylbutan-2-yl)-5-(methylsulfonylmethyl)-N3-(1-phenylethyl)isophthalamide]	–
